Here are results for 31 molecules from US20060216761A1, “Isolation material for hormone disrupting substance, method of concentrating and method of clean-up” (priority 2002, published 2006).

B1: EE2-8-18: anti-ethynyl estradiol monoclonal antibody from mouse hybridoma EE2-8-18 line (antibody, V domains shown)
VH: VQVKESGPGLVAPSQSLSISCTVSGFPLTSYGVQWVRQPPGKGLEWLGVIWPGGSTNYNSALMSRLSISKDNSKSQVFLKMNSLQTDDTAMYYCAGWFQTGPRLFAYWGQGTLVTVSA
VL: DIQMTQSPASLSASVGETVTITCRASENIHSYLAWYQQKQGKSPQVLVYNAKTLGEGVSSRFSGSGSGTQFSLKINSLQPEDFGTYYCQNHYGSPWTFGGGTKLESK
modifications: Mouse
notes: anti-ethynyl estradiol monoclonal antibody from mouse hybridoma EE2-8-18 line
B2: EE2-3: anti-ethynyl estradiol monoclonal antibody from mouse hybridoma EE2-3 line (antibody)
VH: VTLKXSGPGILQPSQTLSLTCSFSGFSLSTSDLGVSWIRQTSGKGLEWLAHIYWNDDKYYNPSLKSRLTISKDTSGNLVFLRITSVDTDDSATYYCARSPLYGSLTYWGQGTLVTVSA
light: DIVMSQSPSSLAVSVGEKVTLNCKSSQSLLNSRTRKNYLAWYQQKPGQSPKLLISWASTRESGVPDRFTGSGSGTDFTLTISSVQAEDLAVYYCNQFYYLLTFGAGTKLELKRADAAPTVSIFPPSSEQLTSGGASVVCFLNNFYPKDINVKWKIDGSERQNGVLNSWTDQDSKDSTYSMSSTLTLTKDEYERHNSYTCEATHKTSTSPIVKSFNRNE
modifications: Mouse; (5)..(5) Xaa = unknown for each location where they appear
notes: anti-ethynyl estradiol monoclonal antibody from mouse hybridoma EE2-3 line

System in the first series: not listed separately
The series is described as follows: Resistance of monoclonal antibody to a detergent. The arrangement: species or system mouse. To be noted: compared with antibody from EE2-277 line.
For the molecule B1, the “resistance to a detergent of the antibody” value was “slightly lower than that of one from EE2-277 line”.

Consider B2, for which the “resistance to a detergent of the antibody” value is on record as “the same as that of one from EE2-277 line”.

In the next series the test system is purified anti-resin plasticizer antibody. As to the kind of experiment: Cross reactivity of purified anti-resin plasticizer antibody. The format is binding, rabbit. The settings on record: assuming DBP=100%.
The molecule `CCCCCCOC(=O)c1ccccc1C(=O)OCCCCCC` [Dihexyl phthalate] displayed a Cross reactivity of 4%.

Molecule `CCCCOC(=O)c1ccccc1C(=O)OCCCC` [Dibutyl phthalate] displayed a Cross reactivity of 100%.

`CCOC(=O)c1ccccc1C(=O)OCC` [Diethyl phthalate] came in with a Cross reactivity of 7%.

The molecule `CCCCC(CC)COC(=O)c1ccccc1C(=O)OCC(CC)CCCC` (stereo not drawn) [Diethylhexyl phthalate (DEHP), Diethylhexyl phthalate] showed a Cross reactivity of under 1%.

Molecule `CCCOC(=O)c1ccccc1C(=O)OCCC` [Dipropyl phthalate] returned a Cross reactivity of 27%.

The molecule `CCCCC(CC)COC(=O)CCCCC(=O)OCC(CC)CCCC` (stereo not drawn) [Diethylhexyl adipate] showed a Cross reactivity of under 1%.

Molecule `CC(C)CCCCCCOC(=O)c1ccccc1C(=O)OCCCCCCC(C)C` [Diisononyl phthalate] yielded a Cross reactivity of under 1%.

On to `CCCCCOC(=O)c1ccccc1C(=O)OCCCCC` [Dipentyl phthalate], for which the Cross reactivity is listed as 10%.

Take `O=C(OC1CCCCC1)c1ccccc1C(=O)OC1CCCCC1` [Dicyclohexyl phthalate]: the Cross reactivity is reported as under 1%.

A further series relates to purified anti-resin component antibody. The series is described as follows: Cross reactivity of purified anti-resin component antibody. To be noted: assuming BPA=100%. The format is binding, rabbit. How it is done:
Also, even in the BPA-2-KLH-immunized rabbits, sixth immunization (immunization number 6) led to an equilibrium of antibody titer, and 178 mg of purified anti-resin component antibody was obtained from one rabbit. When assuming BPA=100% for this purified antibody, cross reactivity was as shown in Table 12; as specificity for BPA was high, it was proven that BPA only can be specifically concentrated or cleaned up.
Consider `CC(=O)Oc1ccc(C(C)(C)c2ccc(OC(C)=O)cc2)cc1` [BPA diacetate], for which the Cross reactivity is 11.1%.

On to `CC(O)(Cc1ccc(O)cc1)c1ccc(O)cc1` (stereo not drawn) [1,2-Bis(4-hydroxyphenyl)-2-propanol], for which the Cross reactivity is listed as under 0.4%.

`Oc1ccc(Oc2ccc(O)cc2)cc1` [4,4′-Dihydroxydiphenyl ether]: the Cross reactivity was under 0.4%.

For `Oc1ccc(Cc2ccc(O)cc2)cc1` [Bis(p-hydroxyphenyl)methane], the Cross reactivity is on record as 1.0%.

With `O=C(c1ccc(O)cc1)c1ccc(O)cc1` [p,p′-Dihydroxybenzophenone], the Cross reactivity was under 0.4%.

With `CC(C)(c1ccc(OCC2CO2)cc1)c1ccc(OCC2CO2)cc1` (stereo not drawn) [BPA diglycidyl ether], the Cross reactivity was under 0.4%.

In the case of `O=S(=O)(c1ccc(OCCO)cc1)c1ccc(OCCO)cc1` [Bis[4-(2-hydroxyethoxy)phenyl]sulfone], the Cross reactivity is on record as under 0.4%.

On to `CC(CCC(=O)O)(c1ccc(O)cc1)c1ccc(O)cc1` [4,4′-Bis(p-hydroxyphenyl)pentanoic acid], for which the Cross reactivity was under 0.4%.

Take `O=S(=O)(c1ccc(O)cc1)c1ccc(O)cc1` [Bisphenol S (BPS), Bisphenol S]: the Cross reactivity is given as under 0.4%.

`CC(c1ccc(O)cc1)c1ccc(O)cc1` [Bisphenol E (BPE), Bisphenol E] showed a Cross reactivity of 6.6%.

`CC(C)(c1ccc(O)cc1)c1ccc(O)cc1` [Bisphenol A (BPA), Bisphenol A] displayed a Cross reactivity of 100%.

Molecule `CC(CO)(c1ccc(O)cc1)c1ccc(O)cc1` [2,2′-Bis(4-hydroxyphenyl)-1-propanol] showed a Cross reactivity of 9.3%.

In turn, `CCC(C)(c1ccc(O)cc1)c1ccc(O)cc1` [Bisphenol B (BPB), Bisphenol B] displayed a Cross reactivity of 22.5%.

In turn, `C=C(C)C(=O)Oc1ccc(C(C)(C)c2ccc(OC(=O)C(=C)C)cc2)cc1` [BPA dimethacrylate] returned a Cross reactivity of 2.7%.

The test system of another series is purified anti-estrogen polyclonal antibody. The series is described as follows: Cross reactivity of purified anti-estrogen polyclonal antibody. The format is binding, rabbit. To be noted: assuming E2=100%. The procedure:
In the E3-16G-KLH-immunized rabbits, third immunization (immunization number 3) led to an equilibrium of antibody titer, and 168 mg of purified anti-estrogen polyclonal antibody was obtained from one rabbit.
Regarding `CCCCC(CC)COC(=O)c1ccccc1C(=O)OCC(CC)CCCC` (stereo not drawn) [Diethylhexyl phthalate (DEHP), Diethylhexyl phthalate], the Cross reactivity is given as under 0.02%.

The molecule `C#C[C@]1(O)CC[C@H]2[C@@H]3CCc4cc(O)ccc4[C@H]3CC[C@@]21C` [Ethynylestradiol (EE2), Ethynylestradiol] returned a Cross reactivity of 7%.

“Nonylphenol ethoxylate [Nonylphenol ethoxylate (NP10EO)]” registered a Cross reactivity of under 0.02%.

Molecule `C[C@]12CC[C@@H]3c4ccc(O)cc4CC[C@H]3[C@@H]1CC[C@@H]2O` [17β-Estradiol (E2), 17β-Estradiol] displayed a Cross reactivity of 100%.

For the molecule t-Nonylphenol [t-Nonylphenol (NP)], the Cross reactivity is recorded as under 0.02%.

In the case of `C[C@]12CC[C@@H]3c4ccc(O)cc4CC[C@H]3[C@@H]1C[C@@H](O)[C@@H]2O` [Estriol (E3), Estriol], the Cross reactivity turned out to be 69%.

`Oc1ccc(Cl)cc1Cl` [2,4-Dichlorophenol (2,4DCP), 2,4-Dichlorophenol] came in with a Cross reactivity of under 0.02%.

`CC(C)(c1ccc(O)cc1)c1ccc(O)cc1` [Bisphenol A (BPA), Bisphenol A] returned a Cross reactivity of under 0.02%.
